Assays:
M4 muscarinic receptor = biological target: T1, M4 muscarinic receptor (Homo sapiens, UniProt P08173); test: Functional mobilization of intracellular calcium (FLIPR, Fluo-3), M4-CHO cells; format: cell-based; details: for Emax: compound nos. 455-509, 100% efficacy is the maximum response obtained with the Carbachol control, read-out: M4 Efficacy; for M4 Activity: compounds 455-509
T1 construct: expressed in transfected cells; host or cells: CHO cells (M4-CHO, under puromycin, zeocin and blasticidin selection)
T1 sequence (P08173 1-479): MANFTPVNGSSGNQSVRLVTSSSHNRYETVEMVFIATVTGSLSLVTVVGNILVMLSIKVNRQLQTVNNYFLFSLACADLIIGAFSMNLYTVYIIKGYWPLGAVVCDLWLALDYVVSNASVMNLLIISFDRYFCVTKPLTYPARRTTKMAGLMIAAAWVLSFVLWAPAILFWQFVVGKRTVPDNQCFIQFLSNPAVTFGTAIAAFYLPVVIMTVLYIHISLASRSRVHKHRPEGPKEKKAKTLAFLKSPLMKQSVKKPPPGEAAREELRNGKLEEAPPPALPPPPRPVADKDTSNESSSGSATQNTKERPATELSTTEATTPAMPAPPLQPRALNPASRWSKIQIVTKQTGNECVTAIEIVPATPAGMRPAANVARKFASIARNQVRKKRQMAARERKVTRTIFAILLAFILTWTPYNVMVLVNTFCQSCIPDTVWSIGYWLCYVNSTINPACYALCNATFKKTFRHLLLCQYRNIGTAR
Procedure, shortened: (§1)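 Intracellular calcium was tracked by fluorescence (488/540 nm) over 60 sec after compound addition to dye-loaded CHO cells expressing the receptor. Inhibitory activity used a 15 min pre-incubation before carbachol at the subtype EC80.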

M1 muscarinic receptor = biological target: T2, M1 muscarinic receptor (Homo sapiens, UniProt P11229); test: Functional mobilization of intracellular calcium (FLIPR, Fluo-3), M1-CHO cells; format: cell-based; details: for Emax: compound nos. 455-509, 100% efficacy is the maximum response obtained with the Carbachol control, read-out: M1 Efficacy; for M1 Activity: compounds 455-509
T2 construct: expressed in transfected cells; host or cells: CHO cells (M1-CHO, under zeocin and G418 selection)
T2 sequence (P11229 1-460): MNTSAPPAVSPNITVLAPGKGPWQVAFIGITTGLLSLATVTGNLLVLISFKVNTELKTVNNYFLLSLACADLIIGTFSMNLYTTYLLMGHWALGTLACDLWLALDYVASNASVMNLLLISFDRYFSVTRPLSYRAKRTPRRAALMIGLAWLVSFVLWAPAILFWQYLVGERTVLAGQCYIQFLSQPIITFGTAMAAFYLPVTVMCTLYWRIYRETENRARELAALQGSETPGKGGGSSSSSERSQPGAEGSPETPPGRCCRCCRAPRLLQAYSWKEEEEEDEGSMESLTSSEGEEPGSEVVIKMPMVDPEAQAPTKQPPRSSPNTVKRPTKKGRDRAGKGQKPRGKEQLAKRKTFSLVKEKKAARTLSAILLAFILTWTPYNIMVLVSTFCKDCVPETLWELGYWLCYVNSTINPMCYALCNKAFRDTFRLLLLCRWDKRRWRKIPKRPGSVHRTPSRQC
Procedure, shortened: as §1

Compound | Emax (M4 muscarinic receptor) [%] | M4 Activity (M4 muscarinic receptor) | Emax (M1 muscarinic receptor) [%] | M1 Activity (M1 muscarinic receptor)
CC(=O)N1CC2(CCN(C3CCN(c4nc(C)cs4)CC3)CC2)c2ccccc21 [compound 475] | 25 to 100 | ++ (activity was measured to be between 2.0 μM and 5.0 μM) | 25 to 100 | ++ (activity was measured to be between 2.0 μM and 5.0 μM)
CCc1nsc(N2CCC(N3CCC4(CC3)CN(C(=O)N(C)C)c3ccccc34)CC2)n1 [compound 476] | > 100 | +++ (activity was measured to be less than or equal to 2.0 μM) | > 100 | +++ (activity was measured to be less than or equal to 2.0 μM)
Cc1nsc(N2CC3(CCN(C4CC5CCC(C4)N5c4nc(C)ns4)CC3)c3ccccc32)n1 (centres unmarked) [compound 477] | 25 to 100 | ++ (activity was measured to be between 2.0 μM and 5.0 μM) | > 100 | +++ (activity was measured to be less than or equal to 2.0 μM)
Cc1cncc(N2CCC(N3CCC4(CC3)CN(C(=O)N(C)C)c3ccccc34)CC2)n1 [compound 478] | 25 to 100 | ++ (activity was measured to be between 2.0 μM and 5.0 μM) | > 100 | +++ (activity was measured to be less than or equal to 2.0 μM)
CC(=O)N(C)[C@H]1CC2(CCN(C3CCN(c4nc(C)ns4)CC3)CC2)c2ccccc21 [compound 479] | 25 to 100 | ++ (activity was measured to be between 2.0 μM and 5.0 μM) | > 100 | +++ (activity was measured to be less than or equal to 2.0 μM)
CN(C)C(=O)N1CC2(CCN(C3CCN(c4nccnc4C#N)CC3)CC2)c2cc(F)ccc21 [compound 480] | 25 to 100 | ++ (activity was measured to be between 2.0 μM and 5.0 μM) | 25 to 100 | ++ (activity was measured to be between 2.0 μM and 5.0 μM)
CN(C)C(=O)N1CC2(CCN(C3CCN(c4cncc(-c5ccccc5O)n4)CC3)CC2)c2ccccc21 [compound 481] | < 25 | ++ (activity was measured to be between 2.0 μM and 5.0 μM) | < 25 | +++ (activity was measured to be less than or equal to 2.0 μM)
CC(=O)N1CC2(CCN(C3CCN(c4nc(C)ns4)CC3)CC2)c2ccccc21 [compound 482] | 25 to 100 | ++ (activity was measured to be between 2.0 μM and 5.0 μM) | > 100 | +++ (activity was measured to be less than or equal to 2.0 μM)
CC(=O)N1CCC2(CCN(C3CCN(c4nc(C)cs4)CC3)CC2)c2ccccc21 [compound 483] | 25 to 100 | ++ (activity was measured to be between 2.0 μM and 5.0 μM) | 25 to 100 | ++ (activity was measured to be between 2.0 μM and 5.0 μM)
CCc1nsc(N2CCC(N3CCC4(CC3)C[C@H](N(C)C(C)=O)c3ccccc34)CC2)n1 [compound 484] | 25 to 100 | ++ (activity was measured to be between 2.0 μM and 5.0 μM) | > 100 | +++ (activity was measured to be less than or equal to 2.0 μM)
CCc1cncc(N2CCC(N3CCC4(CC3)CN(C(C)=O)c3ccccc34)CC2)n1 [compound 485] | 25 to 100 | ++ (activity was measured to be between 2.0 μM and 5.0 μM) | > 100 | +++ (activity was measured to be less than or equal to 2.0 μM)
CN(C)C(=O)N1CCC2(CCN(C3CC4CCC(C3)N4c3cnccn3)CC2)c2ccccc21 (centres unmarked) [compound 486] | 25 to 100 | ++ (activity was measured to be between 2.0 μM and 5.0 μM) | > 100 | +++ (activity was measured to be less than or equal to 2.0 μM)
Cc1ncc(N2CCC(N3CCC4(CC3)CN(C(=O)N(C)C)c3ccccc34)CC2)nc1C [compound 487] | 25 to 100 | ++ (activity was measured to be between 2.0 μM and 5.0 μM) | > 100 | +++ (activity was measured to be less than or equal to 2.0 μM)
COc1ccc(N2CCC(N3CCC4(CC3)CN(C(=O)N(C)C)c3ccc(F)cc34)CC2)nn1 [compound 488] | 25 to 100 | ++ (activity was measured to be between 2.0 μM and 5.0 μM) | > 100 | + (activity was measured to be greater than or equal to 5.0 μM)
CCc1nsc(N2CCC(N3CCC4(CCN(C(C)=O)c5ccccc54)CC3)CC2)n1 [compound 489] | 25 to 100 | ++ (activity was measured to be between 2.0 μM and 5.0 μM) | > 100 | +++ (activity was measured to be less than or equal to 2.0 μM)
COC(=O)N1C2CCC1CC(N1CCC3(CC1)CN(C1CCN(c4nc(C)ns4)CC1)c1ccccc13)C2 (centres unmarked) [compound 490] | 25 to 100 | ++ (activity was measured to be between 2.0 μM and 5.0 μM) | > 100 | ++ (activity was measured to be between 2.0 μM and 5.0 μM)
CC(=O)N1CC2(CCN(C3CCN(c4nccs4)CC3)CC2)c2ccccc21 [compound 491] | < 25 | ++ (activity was measured to be between 2.0 μM and 5.0 μM) | < 25 | + (activity was measured to be greater than or equal to 5.0 μM)
CC(=O)N1CCC2(CCN(C3CCN(c4nc(C)ns4)CC3)CC2)c2ccccc21 [compound 492] | 25 to 100 | ++ (activity was measured to be between 2.0 μM and 5.0 μM) | > 100 | +++ (activity was measured to be less than or equal to 2.0 μM)
Cc1nsc(N2C3CCC2CC(N2CCC4(CC2)CN(C(=O)N(C)C)c2ccccc24)C3)n1 (centres unmarked) [compound 493] | 25 to 100 | ++ (activity was measured to be between 2.0 μM and 5.0 μM) | > 100 | +++ (activity was measured to be less than or equal to 2.0 μM)
Cc1cncc(N2CCC(N3CCC4(CCN(C(=O)N(C)C)c5ccccc54)CC3)CC2)n1 [compound 494] | 25 to 100 | ++ (activity was measured to be between 2.0 μM and 5.0 μM) | > 100 | +++ (activity was measured to be less than or equal to 2.0 μM)
CN(C)C(=O)N1CC2(CCN(C3CCN(c4nncs4)CC3)CC2)c2ccccc21 [compound 495] | 25 to 100 | + (activity was measured to be greater than or equal to 5.0 μM) | 25 to 100 | + (activity was measured to be greater than or equal to 5.0 μM)
CN(C)C(=O)N1CC2(CCN(C3CCN(c4ncnc5ccsc45)CC3)CC2)c2cc(F)ccc21 [compound 496] | 25 to 100 | ++ (activity was measured to be between 2.0 μM and 5.0 μM) | > 100 | + (activity was measured to be greater than or equal to 5.0 μM)
CN(C)C(=O)N1CC2(CCN(C3CCN(c4cnc5ccccc5n4)CC3)CC2)c2ccccc21 [compound 497] | 25 to 100 | ++ (activity was measured to be between 2.0 μM and 5.0 μM) | > 100 | +++ (activity was measured to be less than or equal to 2.0 μM)
